Where two headings read alike, the source gives them in different places.
What was measured:
[1] = molecular target: VIM-1 (Pseudomonas aeruginosa (strain ATCC 15692 / DSM 22644 / CIP 104116 / JCM 14847 / LMG 12228 / 1C / PRS 101 / PAO1), UniProt A0A0F7KYQ8); experiment: biochemical; settings: CCF2-FA substrate, 2 hours at 25° C
Procedure, shortened: (§1)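 Semi-log dose-response curves, fitted with a 4-parameter model, gave IC50s. The underlying signal was CCF2-FA fluorescence following 2 hours at 25° C with enzyme, substrate and inhibitor combined.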

[2] = tested on: P. aeruginosa expressing IMP-1, efflux− (MB9799); experiment: Efflux: concentration of MBL inhibitor which restores susceptibility to imipenem; type: cell-based, Pseudomonas aeruginosa; settings: imipenem at 2 μg/mL, in the presence of a class A, C, D serine β-lactamase inhibitor closely related to relebactam
Source text: (§2) The strain background is Pseudomonas aeruginosa PAO1.

[3] = molecular target: IMP-1 (Serratia marcescens, UniProt P52699); experiment: biochemical; type: biochemical; settings: CCF2-FA substrate, 2 hours at 25° C; read-out: IMP-1 IC50
Procedure, shortened: as §1

[4] = molecular target: NDM-1 (Klebsiella pneumoniae, UniProt C7C422); experiment: biochemical; type: biochemical
Procedure, shortened: as §1

[5] = tested on: P. aeruginosa expressing IMP-1, efflux+ (MB9798); type: cell-based, Pseudomonas aeruginosa; settings: for P. aeruginosa expressing IMP-1, efflux+ (MB9798) MITC95: imipenem at 2 μg/mL, in the presence of a class A, C, D serine β-lactamase inhibitor closely related to relebactam; for Efflux ratio: ratio MITC95 PA_9798/MITC95 PA_9799
Source text: as §2

[6] = tested on: Serratia marcescens expressing IMP-1 (CL5741); type: cell-based; settings: with imipenem 1 μg/ml, 95% inhibition of bacterial growth; for Serratia marcescens MITC95: IMP-1 (CL5741)
Procedure, shortened: (§3)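 Restoration of imipenem susceptibility (1 μg/ml imipenem) was judged by absorbance after 22–24 h at 35° C. Test compound was added to bacteria suspended 1:100 in 1.1× CAMHB from overnight blood-agar cultures.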

[7] = tested on: Klebsiella pneumoniae expressing VIM-1 (IHMA599644); type: cell-based; settings: with imipenem 1 μg/ml, 95% inhibition of bacterial growth; for Klebsiella pneumoniae MITC95: VIM-1 (IHMA599644)
Procedure, shortened: as §3

[8] = tested on: Escherichia coli expressing NDM-1 (CLB30005, CLB30016); type: cell-based; settings: with imipenem 1 μg/ml, 95% inhibition of bacterial growth; for Escherichia coli MITC95: NDM-1 (CLB30016)
Procedure, shortened: as §3

[9] = CCF2-FA substrate, 2 hours at 25° C, read-out: NDM-1 IC50

Sequence of NDM-1 (C7C422 whole entry, looked up, species assumed): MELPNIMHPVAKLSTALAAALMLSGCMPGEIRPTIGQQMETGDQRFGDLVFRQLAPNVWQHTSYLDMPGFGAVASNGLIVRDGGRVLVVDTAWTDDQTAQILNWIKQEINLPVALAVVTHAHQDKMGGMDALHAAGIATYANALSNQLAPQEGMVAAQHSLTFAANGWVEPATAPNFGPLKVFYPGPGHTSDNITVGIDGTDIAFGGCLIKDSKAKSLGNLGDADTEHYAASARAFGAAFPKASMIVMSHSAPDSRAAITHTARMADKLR
Sequence of IMP-1 (P52699 whole entry, looked up, species assumed): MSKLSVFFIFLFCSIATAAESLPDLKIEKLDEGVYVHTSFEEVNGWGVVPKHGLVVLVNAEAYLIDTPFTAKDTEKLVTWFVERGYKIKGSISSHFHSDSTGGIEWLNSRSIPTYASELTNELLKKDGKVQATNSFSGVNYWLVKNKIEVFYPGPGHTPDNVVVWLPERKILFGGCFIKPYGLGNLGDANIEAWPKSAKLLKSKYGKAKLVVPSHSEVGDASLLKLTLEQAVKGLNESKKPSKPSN

| SMILES | IC50 [1] [nM] | P. aeruginosa expressing IMP-1, efflux− (MB9799) MITC95 [2] [µM] | IC50 [3] [nM] | IC50 [4, 9] [nM] | P. aeruginosa expressing IMP-1, efflux+ (MB9798) MITC95 [5] [µM] | Efflux ratio [5] | Serratia marcescens expressing IMP-1 (CL5741) MITC95 [6] [µM] | Klebsiella pneumoniae expressing VIM-1 (IHMA599644) MITC95 [7] [µM] | Escherichia coli expressing NDM-1 (CLB30016) MITC95 [8] [µM] | Serratia marcescens MITC95 [6] [µM] | Klebsiella pneumoniae MITC95 [7] [µM] | Escherichia coli MITC95 [8] [µM] | IC50 [4] [nM] |
| --- | --- | --- | --- | --- | --- | --- | --- | --- | --- | --- | --- | --- | --- |
| Cc1cc(-c2ccc(S(=O)(=O)C3CNC3)c(S(N)(=O)=O)c2-c2nnn[nH]2)cnc1C#N.O=C(O)C(F)(F)F [Example 99, 3-((4-(6-cyano-5-methylpyridin-3-yl)-2-sulfamoyl-3-(1H-tetrazol-5-yl)phenyl)sulfonyl)azetidin-1-ium 2,2,2-trifluoroacetate] | 0.535 | 1.563 | 13.7 | 3.94 | 200 | 127.96 | 12.5 | 6.25 | 6.25 |  |  |  |  |
| Nc1nc2cc(-c3ccc(S(=O)(=O)C4CNC4)c(S(N)(=O)=O)c3-c3nn[nH]n3)ccc2o1 [Example 31, 3-(2-aminobenzo[d]oxazol-5-yl)-6-(azetidin-3-ylsulfonyl)-2-(2H-tetrazol-5-yl)benzenesulfonamide] | 0.373 | 1.563 | 1.37 | 0.337 | 6.25 | 4.00 | 1.563 | 3.125 | 1.563 |  |  |  |  |
| NC[C@@H](N)CS(=O)(=O)c1ccc(-c2ccc(N)nc2)c(-c2nn[nH]n2)c1S(N)(=O)=O [Example 371, (R)-3-(6-aminopyridin-3-yl)-6-((2,3-diaminopropyl)sulfonyl)-2-(2H-tetrazol-5-yl) benzenesulfonamide] | 1.08 | 1.563 | 1.38 | 1.16 | 3.125 | 2.00 |  |  |  | 1.563 | 3.125 | 1.563 |  |
| NC(=O)N1CCC(S(=O)(=O)c2ccc(-c3cccc4nc(N)[nH]c34)c(-c3nn[nH]n3)c2S(N)(=O)=O)CC1 [Example 49, 4-(4-(2-amino-3H-benzo[d]imidazol-4-yl)-2-sulfamoyl-3-(2H-tetrazol-5-yl)phenylsulfonyl)piperidine-1-carboxamide] | 0.308 | 3.125 | 1.37 | 0.278 | 12.5 | 4.00 | 6.25 | 6.25 | 6.25 |  |  |  |  |
| NS(=O)(=O)c1c(SC2CNC2)ccc(-c2cnc3ccccn23)c1-c1nn[nH]n1 [Example 7, 6-(azetidin-3-ylthio)-3-(imidazo[1,2-a]pyridin-3-yl)-2-(2H-tetrazol-5-yl)benzenesulfonamide] | 25.6 | 3.125 | 50.4 | 7.55 | 25 | 8.00 | 3.125 | 6.25 | 0.3906 |  |  |  |  |
| Nc1ncccc1-c1ccc(S(=O)(=O)C2CNC2)c(S(N)(=O)=O)c1-c1nn[nH]n1 [Example 219, 3-(2-aminopyridin-3-yl)-6-(azetidin-3-ylsulfonyl)-2-(2H-tetrazol-5-yl) benzenesulfonamide] | 0.52 | 1.281 | 5.66 | 0.647 | 6.25 | 4.88 | 0.6406 | 1.281 | 0.125 |  |  |  |  |
| NC1CCC(c2ccc(S(=O)(=O)CC3CNC3)c(S(N)(=O)=O)c2-c2nnn[nH]2)CC1 (stereo not drawn) [Example 203, 3-(4-aminocyclohexyl)-6-((azetidin-3-ylmethyl)sulfonyl)-2-(1H-tetrazol-5-yl)benzenesulfonamide] | 0.591 | 0.7813 | 22.9 | 11.2 | 3.125 | 4.00 | 1.563 | 1.563 | 3.125 |  |  |  |  |
| Cn1c(N)nc2c(-c3ccc(S(=O)(=O)CCCN)c(S(N)(=O)=O)c3-c3nn[nH]n3)cccc21 [Example 195, 3-(2-amino-1-methyl-1H-benzo[d]imidazol-4-yl)-6-(3-aminopropylsulfonyl)-2-(2H-tetrazol-5-yl)benzenesulfonamide] | 0.155 | 0.7813 | 0.251 | 0.26 | 0.7813 | 1.00 | 0.7813 | 1.563 | 0.3906 |  |  |  |  |
| NC(=O)CN1CC(S(=O)(=O)c2ccc(-c3cccc4[nH]c(N)nc34)c(-c3nn[nH]n3)c2S(N)(=O)=O)C1 [Example 50, 2-(3-(4-(2-amino-1H-benzo[d]imidazol-4-yl)-2-sulfamoyl-3-(2H-tetrazol-5-yl)phenylsulfonyl)azetidin-1-yl)acetamide] | 0.585 | 3.125 | 1.44 | 0.242 | 3.125 | 1.00 | 3.125 | 6.25 | 3.125 |  |  |  |  |
| Cn1ncc2cc(-c3ccc(S(=O)(=O)CCN)c(S(N)(=O)=O)c3-c3nnn[nH]3)ccc21.O=C(O)C(F)(F)F [Example 160, 2-((4-(1-methyl-1H-indazol-5-yl)-2-sulfamoyl-3-(1H-tetrazol-5-yl)phenyl)sulfonyl)ethanaminium 2,2,2-trifluoroacetate] | 0.375 | 1.563 | 0.568 | 1.02 | 12.5 | 8.00 | 3.125 | 6.25 | 1.563 |  |  |  |  |
| NCCS(=O)(=O)c1ccc(C2CCNc3ccccc32)c(-c2nn[nH]n2)c1S(N)(=O)=O (stereo not drawn) [Example 272, 6-(2-aminoethylsulfonyl)-3-(1,2,3,4-tetrahydroquinolin-4-yl)-2-(2H-tetrazol-5-yl)benzenesulfonamide] | 0.64 | 1.563 | 6.06 |  | 100 | 63.98 |  |  |  | 6.25 | 6.25 | 3.125 | 1.84 |

Reference: US10227331B2 (priority 2015, dated 2019)
